Laboratory results from patent US20060276464A1, “Diarylsulfone sulfonamides and use thereof” (Wyeth, priority 2005, published 2006).
Where two headings read alike, the source gives them in different places.

Tests used:
SFRP-1 [1] = biological target: T1, SFRP-1 (Homo sapiens, UniProt Q8N474); assay: Fluorescence polarization binding assay (competitive displacement of a probe compound from SFRP-1); conditions: fluorescence anisotropy, 45 nM SFRP-1, 20 nM probe;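 note: test compound competes with a fluorescent probe held by SFRP-1, seen as a drop in probe anisotropy after incubation in darkness, with anisotropy as function of rising compound dose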
T1 sequence (Q8N474 32-314): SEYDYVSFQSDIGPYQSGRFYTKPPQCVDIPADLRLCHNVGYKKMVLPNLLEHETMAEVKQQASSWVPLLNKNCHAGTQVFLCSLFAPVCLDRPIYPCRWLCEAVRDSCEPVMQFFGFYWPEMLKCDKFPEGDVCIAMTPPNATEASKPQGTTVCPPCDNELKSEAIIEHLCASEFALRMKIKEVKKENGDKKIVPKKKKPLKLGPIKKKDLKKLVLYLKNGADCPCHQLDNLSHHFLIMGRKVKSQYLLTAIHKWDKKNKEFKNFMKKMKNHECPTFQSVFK

SFRP-1 [2] = biological target: T1, SFRP-1; assay: Cell-based assay for in vitro measurement of SFRP-1/SARP2 antagonist activity (U2OS cells co-transfected with 16x TCF-tk-Luciferase reporter, Wnt and hSFRP-1); conditions: for fold induction at 15 µM / fold induction at 10 µM: U2OS; for fold induction at 10 µM: read-out: Fold Induction with SFRP-1, U2OS cells, single dose 10 μM, luciferase reporter, fold induction over SFRP-1 control;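 for all read-outs here: U2OS cells co-transfected with a TCF-tk luciferase reporter, a Wnt vector, hSFRP-1 or empty vector and CMV-βgal, luciferase luminescence read in cell lysates alongside βgal activity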
[3] = read-out: Fold Induction with SFRP-1, Conc 15 μM, with SFRP-1, fold induction over SFRP-1 control, single dose
[4] = read-out: Fold Induction without SFRP-1, Conc 15 μM, without SFRP-1, single dose
[5] = read-out: Fold Induction with SFRP-1, Conc 15 μM, single dose, luciferase reporter, fold induction over SFRP-1 control, cells with SFRP-1
[6] = read-out: Fold Induction without SFRP-1, Conc 15 μM, single dose, luciferase reporter, cells without SFRP-1 (specificity control)

Row | Compound | IC50 (SFRP-1 [1]) | fold induction at 15 µM (SFRP-1 [2]; [3]) | fold induction at 15 µM (SFRP-1 [2]; [4]) | fold induction at 15 µM (SFRP-1 [2]; [5]) | fold induction at 15 µM (SFRP-1 [2]; [6]) | EC50 (SFRP-1 [2]) | fold induction at 10 µM (SFRP-1 [2])
1 | CCc1ccc(S(=O)(=O)c2ccccc2)cc1S(=O)(=O)NCCN1CCOCC1 [Example 226, 2-ethyl-N-(2-morpholin-4-ylethyl)-5-(phenylsulfonyl)benzenesulfonamide] | 2600 nM | 3 | 0.7 | – | – | – | –
2 | CCCc1ccc(S(=O)(=O)c2ccc(F)cc2)cc1S(=O)(=O)NCCC1CCOCC1 [Example 562, 5-[(4-Fluorophenyl)sulfonyl]-2-propyl-N-[2-(tetrahydro-2H-pyran-4-yl)ethyl]benzenesulfonamide] | 1600 nM | – | – | 3.3 | 1.2 | – | –
3 | CCCc1ccc(S(=O)(=O)c2ccccc2)cc1S(=O)(=O)NCC1CCOCC1 [Example 552, 5-(Phenylsulfonyl)-2-propyl-N-(tetrahydro-2H-pyran-4-ylmethyl)benzenesulfonamide] | 1200 nM | – | – | 2.4 | 1.2 | – | –
4 | O=C(c1ccc(C(F)(F)F)cc1)N1CCC(NS(=O)(=O)c2cc(S(=O)(=O)c3ccccc3)ccc2Cl)CC1 [Example 658, 2-chloro-5-(phenylsulfonyl)-N-{1-[4-(trifluoromethyl)benzoyl]piperidin-4-yl}benzenesulfonamide] | 800 nM | – | – | – | – | 6350 nM | 2.6
5 | Cc1ccc(S(=O)(=O)c2ccccc2)cc1S(=O)(=O)NC1CCN(S(=O)(=O)c2cn(C)cn2)CC1 [Example 481, 2-methyl-N-{1-[(1-methyl-1H-imidazol-4-yl)sulfonyl]piperidin-4-yl}-5-(phenylsulfonyl)benzenesulfonamide] | 1200 nM | 1.8 | 1 | – | – | – | –
6 | COc1cccc(OC)c1C(=O)N1CCC(NS(=O)(=O)c2cc(S(=O)(=O)c3ccccc3)ccc2C(F)(F)F)CC1 [Example 707, N-[1-(2,6-dimethoxybenzoyl)piperidin-4-yl]-5-(phenylsulfonyl)-2-(trifluoromethyl)benzenesulfonamide] | 200 nM | – | – | – | – | 187 nM | 4.2
7 | CNc1ccc(S(=O)(=O)c2ccc(C(C)C)c(S(=O)(=O)NCCC3CCOCC3)c2)cc1 [Example 359, 2-isopropyl-5-{[4-(methylamino)phenyl]sulfonyl}-N-[2-(tetrahydro-2H-pyran-4-yl)ethyl]benzenesulfonamide] | 800 nM | 2.7 | 0.9 | – | – | – | –
8 | CC(C)c1ccc(S(=O)(=O)c2ccc(F)cc2)cc1S(=O)(=O)NCC(O)c1ccccn1 (stereo not shown) [Example 727, 5-[(4-fluorophenyl)sulfonyl]-N-(2-hydroxy-2-pyridin-2-ylethyl)-2-isopropylbenzenesulfonamide] | 10000 nM | – | – | – | – | – | 3.2
9 | CC(C)c1ccc(S(=O)(=O)c2ccc(NCCC#N)cc2)cc1S(=O)(=O)NC1CCOCC1 [Example 535, 5-({4-[(2-cyanoethyl)amino]phenyl}sulfonyl)-2-isopropyl-N-(tetrahydro-2H-pyran-4-yl)benzenesulfonamide] | 400 nM | – | – | 3.8 | 1.2 | – | –
10 | Cc1ccc(S(=O)(=O)c2ccc(F)cc2)cc1S(=O)(=O)NC1CCN(C(=O)N2CCOCC2)CC1 [Example 603, 5-[(4-fluorophenyl)sulfonyl]-2-methyl-N-[1-(morpholin-4-ylcarbonyl)piperidin-4-yl]benzenesulfonamide] | 8000 nM | – | – | 2.4 | 0.9 | – | –
11 | CC(C)c1ccc(S(=O)(=O)c2ccccc2)cc1S(=O)(=O)NCC(O)c1ccccc1 (stereo not shown) [Example 736, N-(2-hydroxy-2-phenylethyl)-2-isopropyl-5-(phenylsulfonyl)benzenesulfonamide] | 400 nM | – | – | – | – | 1760 nM | 5
12 | CC(C)c1ccc(S(=O)(=O)c2ccccc2)cc1S(=O)(=O)NCCc1ccccn1 [Example 671, 2-isopropyl-5-(phenylsulfonyl)-N-(2-pyridin-2-ylethyl)benzenesulfonamide] | 400 nM | – | – | – | – | 1580 nM | 3.6
13 | Cc1ccc(S(=O)(=O)c2ccccc2)cc1S(=O)(=O)NC1CCN(C(=O)c2ccc(C#N)cc2)CC1 [Example 476, N-[1-(4-cyanobenzoyl)piperidin-4-yl]-2-methyl-5-(phenylsulfonyl)benzenesulfonamide] | 1400 nM | 2 | 1 | – | – | – | –
14 | COc1cc(C(=O)N2CCC(NS(=O)(=O)c3cc(S(=O)(=O)c4ccccc4)ccc3C(F)(F)F)CC2)cc(Cl)n1 [Example 715, N-[1-(2-chloro-6-methoxyisonicotinoyl)piperidin-4-yl]-5-(phenylsulfonyl)-2-(trifluoromethyl)benzenesulfonamide] | 400 nM | – | – | – | – | 1290 nM | 4.9
15 | COC(=O)c1ccc(C(=O)N(C)CCNS(=O)(=O)c2cc(S(=O)(=O)c3ccccc3)ccc2C(F)(F)F)cc1 [Example 848, Methyl 4-({methyl[2-({[5-(phenylsulfonyl)-2-(trifluoromethyl)phenyl]sulfonyl}amino)ethyl]amino}carbonyl)benzoate] | 700 nM | – | – | – | – | 1640 nM | 3.6

The remaining lines, values ahead:

Row | IC50 (SFRP-1 [1]) | fold induction at 15 µM (SFRP-1 [2]; [3]) | fold induction at 15 µM (SFRP-1 [2]; [4]) | fold induction at 15 µM (SFRP-1 [2]; [5]) | fold induction at 15 µM (SFRP-1 [2]; [6]) | EC50 (SFRP-1 [2]) | fold induction at 10 µM (SFRP-1 [2]) | Compound
16 | 60 nM | – | – | – | – | 700 nM | 3.5 | O=C(O)c1cccc(S(=O)(=O)N2CCC(CNS(=O)(=O)c3cc(S(=O)(=O)c4ccccc4)ccc3C(F)(F)F)CC2)c1 [Example 904, 3-({4-[({[5-(phenylsulfonyl)-2-(trifluoromethyl)phenyl]sulfonyl}amino)methyl]piperidin-1-yl}sulfonyl)benzoic acid]
17 | 180 nM | – | – | – | – | 380 nM | 3.9 | Nc1ccc(CCNS(=O)(=O)c2cc(S(=O)(=O)c3ccccc3)ccc2C(F)(F)F)cc1 [Example 928, N-[2-(4-aminophenyl)ethyl]-5-(phenylsulfonyl)-2-(trifluoromethyl)benzenesulfonamide]
18 | 1100 nM | – | – | – | – | 2280 nM | 4.1 | O=S(=O)(NCCC1CCNCC1)c1cc(S(=O)(=O)c2ccccc2)ccc1C(F)(F)F [Example 940, 5-(phenylsulfonyl)-N-(2-piperidin-4-ylethyl)-2-(trifluoromethyl)benzenesulfonamide]
19 | 1400 nM | – | – | – | – | – | 3.8 | CC(C)c1ccc(S(=O)(=O)c2ccc(F)cc2)cc1S(=O)(=O)NC1CCS(=O)(=O)CC1 [Example 858, N-(1,1-dioxidotetrahydro-2H-thiopyran-4-yl)-5-[(4-fluorophenyl)sulfonyl]-2-isopropylbenzenesulfonamide]
20 | 10000 nM | – | – | – | – | 1870 nM | 2.4 | Cc1cc(C)c(S(=O)(=O)c2ccccc2)cc1S(=O)(=O)NC1CCNCC1 [Example 923, 2,4-dimethyl-5-(phenylsulfonyl)-N-piperidin-4-ylbenzenesulfonamide]
21 | 1400 nM | – | – | – | – | 5260 nM | 1.6 | O=C(O)CCC(=O)N1CCCC1CCNS(=O)(=O)c1cc(S(=O)(=O)c2ccccc2)ccc1C(F)(F)F (stereo not shown) [Example 919, 4-oxo-4-{2-[2-({[5-(phenylsulfonyl)-2-(trifluoromethyl)phenyl]sulfonyl}amino)ethyl]pyrrolidin-1-yl}butanoic acid]
